Like-named read-outs stand apart in the source and are kept apart here.
Experiments:
CYP3A4 = conditions: cited from earlier work
clinical = conditions: female, human, in vivo
[1] = in vivo
[2] = non-pregnant adults; cited from earlier work
[3] = for CL/F (oral clearance): all women not receiving lopinavir/ritonavir, median; for C0: pre-dose
[4] = previous studies incl. initial analysis of P1026s data; cited from earlier work
[5] = postpartum, with LPV/r, median (IQR)
[6] = postpartum, without LPV/r, other regimens, median (IQR)
[7] = postpartum, without LPV/r, with ATV/r, median (IQR)
[8] = third trimester, with LPV/r, median (IQR)
[9] = third trimester, without LPV/r, other regimens, median (IQR)
[10] = third trimester, without LPV/r, with ATV/r, median (IQR)

CC(C)(C)NC(=O)[C@@H]1C[C@@H]2CCCC[C@@H]2CN1C[C@@H](O)[C@H](Cc1ccccc1)NC(=O)[C@H](CC(N)=O)NC(=O)c1ccc2ccccc2n1 [saquinavir]
CYP3A4 inhibition (CYP3A4): weak inhibition

C[C@H](Cn1cnc2c(N)ncnc21)OCP(=O)(O)O [Tenofovir]
AUC(0-t) (clinical; AUC0–24): 2200 ng·h/mL
Cmax (clinical; Cmax): 257 ng/mL
AUC0–24 (exposure) lower in third trimester compared to postpartum ([1]; female, human): 27%
decrease in AUC0–24 during third trimester compared to postpartum ([1]; female, human): 25%
increase in CL/F during third trimester compared to postpartum ([1]; female, human): 33%
oral clearance higher in third trimester compared to postpartum ([1]; female, human, po): 27%
differences in AUC0–24, third trimester vs postpartum [1]: did not reach statistical significance
exposure increased with concomitant lopinavir/ritonavir [2]: 32%
concentration at 24 h ([3]; female, human, in vivo, C24, third trimester, without LPV/r, with ATV/r, 24 hour post-dose, median (IQR)): 47 ng/mL
half-life ([3]; female, human, in vivo, t1/2, postpartum, with LPV/r, median (IQR)): 750 min
half-life ([3]; female, human, in vivo, t1/2, third trimester, with LPV/r, median (IQR)): 1050 min
CL/F (oral clearance) ([3]; postpartum): 48 L/h
CL/F [3, 5]: 49 (36 – 75) L/hr
Vd/F [3, 5]: 1224 (643 – 1312) L/hr
C0 [3, 5]: 59.4 (5.0 – 77.8) ng/mL
CL/F [3, 6]: 49 (30 – 58) L/hr
Vd/F [3, 6]: 757 (514 – 1133) L/hr
C0 [3, 6]: 74 (50 – 118) ng/mL
CL/F [3, 7]: 48 (38 – 63) L/hr
Vd/F [3, 7]: 949 (676 – 1246) L/hr
C0 [3, 7]: 60 (31 – 93) ng/mL
CL/F (oral clearance) ([3]; third trimester): 61 L/h
CL/F [3, 8]: 46 (40 – 60) L/hr
Vd/F [3, 8]: 1103 (973 – 1312) L/hr
C0 [3, 8]: 70 (53 – 85) ng/mL
CL/F [3, 9]: 57 (47 – 62) L/hr
Vd/F [3, 9]: 1159 (1037 – 1709) L/hr
t1/2 [3, 9]: 15.9 (14.3 – 19.2) hr
C0 [3, 9]: 54 (42 – 67) ng/mL
CL/F [3, 10]: 64 (57 – 85) L/hr
Vd/F [3, 10]: 1284 (1120 – 2181) L/hr
C0 [3, 10]: 48 (36 – 59) ng/mL
clearance higher in third trimester of pregnancy compared to postpartum [4]: 22–39%
exposure lower in third trimester of pregnancy compared to postpartum [4]: 20–33%
